# Experimental data as given in patent US11459327B1, “Cycloalkyl and hetero-cycloalkyl inhibitors, preparation methods therefor, and use thereof” (Suzhou Zelgen Biopharmaceuticals Co., Ltd., priority 2019, dated 2022).
# System: NCI-H358(KRAS^G12C mutation) cells
# Experiment: Cell assay of antiproliferative activity (Celltiter-Glo, 5 days) against NCI-H358 cells
# Type: cell-based
# Settings: 5 days incubation
# Method: Cell assay of antiproliferative activity of compounds against NCI-H358(KRAS^G12C mutation) and A549(KRAS^G12S mutation) cells.
# 40 μl phosphate buffer was added to the outer wells of the 384 microplate, and 40 μl cell suspension to be tested was added to the other wells. Then the microplate was incubated in a carbon dioxide incubator overnight.
# The compounds to be tested were gradiently diluted, each compound was performed 10 concentration gradients (diluted from 50 μM to 0.003 μM) and added 100 nL to the corresponding wells in the microplate. After addition, 40 μl of phosphate buffer was added to each well in rows A and P and columns 1 and 24, and then the microplate was incubated in a carbon dioxide incubator for 5 days.
# 20 μL of Promega Celltiter-Glo reagent was added to each well of the microplate, and then the luminescence signal was stabilized by oscillating at room temperature for 10 min. Then PekinElmer Envision multi-label analyzer was used to read.
# Finally, GraphPad Prism software was used to calculate the IC50 value of the compound and the fitting curve was drawn.
# Anti-proliferative activity of the compounds of the present invention against NCI-H358(KRAS^G12C mutation) and A549(KRAS^G12S mutation) cells were shown in Table 1.
row,SMILES,IC50
1,"C=CC(=O)N1CCN(c2nc(OCC3(CN(C)C)CC3)nc3c2CC(C)N(c2cccc4cccc(Cl)c24)C3)CC1CC#N (single isomer, unassigned) [Example 29A, 2-(1-acroloyl-4-(7-(8-chloronaphthalen-1-yl)-2-((1-((dimethylamino)methyl)cyclopropyl)methoxyl)-6-methyl-5,6,7,8-tetrahydropyrido [3,4-d]pyrimidin-4-yl)piperazin-2-yl) acetonitrile]",360 nM
2,"C=CC(=O)N1CCN(c2nc(OCC3(CN(C)C)CC3)nc3c2CC(C)N(c2cccc4cccc(Cl)c24)C3)CC1CC#N (single isomer, unassigned) [Example 29B, 2-(1-acroloyl-4-(7-(8-chloronaphthalen-1-yl)-2-((1-((dimethylamino)methyl)cyclopropyl)methoxyl)-6-methyl-5,6,7,8-tetrahydropyrido [3,4-d]pyrimidin-4-yl)piperazin-2-yl) acetonitrile]",53 nM
3,"C=CC(=O)N1CCN(c2nc(OCC3(CN(C)C)CC3)nc3c2CC(C)N(c2cccc4cccc(Cl)c24)C3)CC1CC#N (single isomer, unassigned) [Example 29C, 2-(1-acroloyl-4-(7-(8-chloronaphthalen-1-yl)-2-((1-((dimethylamino)methyl)cyclopropyl)methoxyl)-6-methyl-5,6,7,8-tetrahydropyrido [3,4-d]pyrimidin-4-yl)piperazin-2-yl) acetonitrile]",100 nM
4,"C=CC(=O)N1CCN(c2nc(OCC3(CN(C)C)CC3)nc3c2CC(C)N(c2cccc4cccc(Cl)c24)C3)CC1CC#N (single isomer, unassigned) [Example 29D, 2-(1-acroloyl-4-(7-(8-chloronaphthalen-1-yl)-2-((1-((dimethylamino)methyl)cyclopropyl)methoxyl)-6-methyl-5,6,7,8-tetrahydropyrido [3,4-d]pyrimidin-4-yl)piperazin-2-yl) acetonitrile]",6 nM
5,"C=CC(=O)N1CCN(c2nc(OCCN(C)C3(C)CCC3)nc3c2CCN(c2cccc4cccc(Cl)c24)C3)CC1CC#N (stereo not shown) [Example 23, 2-(1-acroloyl-4-(7-(8-chloronaphthalen-1-yl)-2-(2-(methyl(1-methylcyclobutyl)amino)ethoxy)-5,6,7,8-tetrahydropyrido[3,4-d]pyrimidin-4-yl)piperazin-2-yl) acetonitrile]",13 nM
6,"C=CC(=O)N1CCN(c2nc(OCC3(CNC)CC3)nc3c2CCN(c2cccc4cccc(Cl)c24)C3)CC1CC#N (stereo not shown) [Example 26, 2-(1-acroloyl-4-(7-(8-chloronaphthalen-1-yl)-2-((1-((methylamino)methyl)cyclopropyl)methoxy)-5,6,7,8-tetrahydropyrido[3,4-d]pyrimidin-4-yl)piperazin-2-yl) acetonitrile]",62 nM

# Same assay, conditions: Homo sapiens, NCI-H358, 120 h, 5 days incubation
row,IC50,SMILES
1,59 nM,"C=C(F)C(=O)N1CCN(c2nc(OCC3(CN(C)C)COC3)nc3c2CCN(c2cccc4cccc(Cl)c24)C3)CC1CC#N (stereo not shown) [Example 25, 2-(4-(7-(8-chloronaphthalen-1-yl)-2-((3-((dimethylamino)methyl)oxetan-3-yl)methoxy)-5,6,7,8-tetrahydropyrido[3,4-d]pyrimidin-4-yl)-1-(2-fluoroacroloyl)piperazin-2-yl) acetonitrile]"
2,8 nM,C=C(F)C(=O)N1CCN(c2nc(OCC3(CN(C)C)CC3)nc3c2CCN(c2cccc4ccc(F)c(Cl)c24)C3)C[C@@H]1CC#N [Example 28]
3,41 nM,C=CC(=O)N1CCN(c2nc(OCC3(N(C)C)CC3)nc3c2CCN(c2cccc4cccc(Cl)c24)C3)CC1CC#N (stereo not shown) [Example 30]
4,73 nM,"C=CC(=O)N1CCN(c2nc(OCCN(C)C3(COC)CCC3)nc3c2CCN(c2cccc4cccc(Cl)c24)C3)CC1CC#N (stereo not shown) [Example 31, 2-(acroloyl-4-(7-(8-chloronaphthalen-1-yl)-2-(2-((1-(methoxymethyl)cyclobutyl)(methyl)amino)ethoxy)-5,6,7,8-tetrahydropyrido[3,4-d]pyrimidin-4-yl)piperazin-2-yl) acetonitrile]"
5,120 nM,"C=CC(=O)N1CCN(c2nc(OCC3(CN(C)C4CC4)COC3)nc3c2CCN(c2cccc4cccc(Cl)c24)C3)CC1CC#N (stereo not shown) [Example 32, 2-(1-acroloyl-4-(7-(8-chloronaphthalen-1-yl)-2-((3-((cyclopropyl(methyl)amino)methyl)oxetan-3-yl)methoxyl)-5,6,7,8-tetrahydropyrido[3,4-d]pyrimidin-4-yl)piperazin-2-yl) acetonitrile]"
6,66 nM,"C=C(F)C(=O)N1CCN(c2nc(OCCN(C)C3(C)CCC3)nc3c2CCN(c2cccc4ccc(F)c(Cl)c24)C3)CC1CC#N (stereo not shown) [Example 33, 2-(4-(7-(8-chloro-7-fluoronaphthalen-1-yl)-2-(2-(methyl(1-methylcyclobutyl)amino)ethoxy)-5,6,7,8-tetrahydropyrido[3,4-d]pyrimidin-4-yl)-1-(2-fluoroacroloyl)piperazin-2-yl) acetonitrile]"
7,1900 nM,"C=CC(=O)N1C[C@@H](C)N(c2nc(OCC3(CN(C)C)CC3)nc3c2CCN(c2cccc4cccc(Cl)c24)C3)C[C@@H]1C [Example 34, 1-((2S,5R)-4-(7-(8-chloronaphthalen-1-yl)-2-((1-((dimethylamino)methyl)cyclopropyl)methoxyl)-5,6,7,8-tetrahydropyrido[3,4-d]pyrimidin-4-yl)-2,5-dimethylpiperazin-1-yl)prop-2-ene-1-one]"
8,310 nM,C=C(F)C(=O)N1CCN(c2nc(OCC3(CN(C)C)CC3)nc3c2CCN(c2c(C)ccc4[nH]ncc24)C3)C[C@@H]1CC#N [Example 35]
9,250 nM,[2H]C([2H])([2H])N(CC1(COc2nc3c(c(N4CCN(C(=O)C(=C)F)[C@@H](CC#N)C4)n2)CCN(c2c(C)ccc4[nH]ncc24)C3)CC1)C([2H])([2H])[2H] [Example 36]
10,4900 nM,"C=CC(=O)N1CC2CN(c3nc(OCC4(CN(C)C)CC4)nc4c3CCN(c3cccc5cccc(Cl)c35)C4)CC2C1 (stereo not shown) [Example 38, 1-(5-(7-(8-chloronaphthalen-1-yl)-2-((1-((dimethylamino)methyl)cyclopropyl)methoxyl)-5,6,7,8-tetrahydropyrido[3,4-d]pyrimidin-4-yl)hexahydropyrrolo[3,4-c]pyrrole-2(1H)-yl)prop-2-ene-1-one]"
11,2500 nM,"C=CC(=O)N1CCN(c2nc(OCC3(CN(C)C)CC3)nc3c2CCN(c2cccc4cccc(Cl)c24)C3)CC12CC2 [Example 39, 1-(7-(7-(8-chloronaphthalen-1-yl)-2-((1-((dimethylamino)methyl)cyclopropyl)methoxyl)-5,6,7,8-tetrahydropyrido[3,4-d]pyrimidin-4-yl)-4,7-diazaspiro[2.5]octane-4-yl)prop-2-ene-1-one]"
12,300 nM,"C=CC(=O)N1CC2(C1)CN(c1nc(OCC3(CN(C)C)CC3)nc3c1CCN(c1cccc4cccc(Cl)c14)C3)C2 [Example 40, 1-(6-(7-(8-chloronaphthalen-1-yl)-2-((1-((dimethylamino)methyl)cyclopropyl)methoxyl)-5,6,7,8-tetrahydropyrido[3,4-d]pyrimidin-4-yl)-2,6-diazaspiro[3.3]heptane-2-yl)prop-2-ene-1-one]"
13,1400 nM,"C=CC(=O)N1CCN(c2nc(OCC3(CN(C)C)CC3)nc3c2CCN(c2cccc4cccc(Cl)c24)C3)CC1C(F)(F)F (stereo not shown) [Example 41, 1-(-4-(7-(8-chloronaphthalen-1-yl)-2-((1-((dimethylamino)methyl)cyclopropyl)methoxyl)-5,6,7,8-tetrahydropyrido[3,4-d]pyrimidin-4-yl)-2-(trifluoromethyl)piperazin-1-yl)prop-2-ene-1-one]"
14,5500 nM,"C=CC(=O)N1CC2CC1CN2c1nc(OCC2(CN(C)C)CC2)nc2c1CCN(c1cccc3cccc(Cl)c13)C2 (stereo not shown) [Example 42, 1-(5-(7-(8-chloronaphthalen-1-yl)-2-((1-((dimethylamino)methyl)cyclopropyl)methoxyl)-5,6,7,8-tetrahydropyrido[3,4-d]pyrimidin-4-yl)-2,5-diazabicyclo[2.2.1]heptane-2-yl)prop-2-ene-1-one]"
15,830 nM,"C=CC(=O)N1CC2CCC1CN2c1nc(OCC2(CN(C)C)CC2)nc2c1CCN(c1cccc3cccc(Cl)c13)C2 (stereo not shown) [Example 43, 1-(5-(7-(8-chloronaphthalen-1-yl)-2-((1-((dimethylamino)methyl)cyclopropyl)methoxyl)-5,6,7,8-tetrahydropyrido[3,4-d]pyrimidin-4-yl)-2,5-diazabicyclo[2.2.2]octane-2-yl)prop-2-ene-1-one]"
16,3300 nM,"C=CC(=O)N1CC2(CCN(c3nc(OCC4(CN(C)C)CC4)nc4c3CCN(c3cccc5cccc(Cl)c35)C4)C2)C1 [Example 44, 1-(6-(7-(8-chloronaphthalen-1-yl)-2-((1-((dimethylamino)methyl)cyclopropyl)methoxyl)-5,6,7,8-tetrahydropyrido[3,4-d]pyrimidin-4-yl)-2,6-diazaspiro[3.4]octane-2-yl)prop-2-ene-1-one]"
17,49 nM,[2H]C([2H])([2H])N(CC1(COc2nc3c(c(N4CCN(C(=O)C(=C)F)[C@@H](CC#N)C4)n2)CCN(c2cccc4cccc(Cl)c24)C3)CC1)C([2H])([2H])[2H] [Example 45]
18,37 nM,C=C(F)C(=O)N1CCN(c2nc(OCC3(COC)CN(C)C3)nc3c2CCN(c2cccc4cccc(Cl)c24)C3)C[C@@H]1CC#N [Example 46]

row,SMILES,IC50
1,"C=CC(=O)N1[C@@H]2CC[C@H]1CN(c1nc(OCC3(CN(C)C)CC3)nc3c1CCN(c1cccc4cccc(Cl)c14)C3)C2 [Example 37, 1-((1R,5S)-3-(7-(8-chloronaphthalen-1-yl)-2-((1-((dimethylamino)methyl)cyclopropyl)methoxyl)-5,6,7,8-tetrahydropyrido[3,4-d]pyrimidin-4-yl)-3,8-diazabicyclo[3.2.1]octane-8-yl)prop-2-ene-1-one]",1400 nM
